Residues, ends and D or L forms follow the SMILES beside them. *: point of attachment. Cbz = O=C(OCc1ccccc1)*; CH2F = FC*
Tested on: glioma cells
Assay: Rescue of SapC-DOPS-induced killing by pathway inhibitors
Assay type: cell-based
Settings: inhibitor given with SapC-DOPS
Excerpt: Synergy analysis was completed using CompuSyn software.

Row | SMILES | rescue of SapC-DOPS-induced killing
1 | Cn1cnc(N)c2ncnc1-2 [3-methyladeneine] | significant rescue
2 | COC(=O)C[C@H](NC(=O)[C@H](C)NC(=O)[C@@H](NC(=O)OCc1ccccc1)C(C)C)C(=O)CF [Z-VAD-FMK] (Cbz-Val-Ala-Asp(OMe)-CH2F) | did not rescue
3 | CO/C1=C\C(C)=C\[C@@H](C)[C@@H](O)[C@@H](C)C/C(C)=C/C=C/[C@H](OC)[C@@H]([C@@H](C)[C@@H](O)[C@H](C)[C@@]2(O)C[C@@H](O)[C@H](C)[C@@H](C(C)C)O2)OC1=O [bafilomycin Al] | significant rescue
